Values joined by “and” are separate entries in the source; they are usually repeats but may differ in a detail not shown here. Equal values may be shown once.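 The compound was tested at five concentrations on cells cultured in 96-well plates, with a 48-hour exposure period. The concentration for 50% growth inhibition is given as GI50. The concentration for full growth arrest is given as TGI.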 A value given as a limit tells only on which side of the number the result lay.

In the first experiment the test system is NCI-H226 lung. In words: growth of human tumour cells (NCI), 48 h.
Take `CC1=NN(C(=O)CC(=O)N(C(=O)c2ccccc2Cl)c2ccc(C)cc2)C(=O)C1N=Nc1ccc([N+](=O)[O-])cc1` (stereo not given): the TGI was > 100 µM.
On the same count and under the same terms, the result for `CCn1c(CO)nn(-c2cc(O[C@@H](C)C(F)(F)F)c(C(=O)Nc3c(F)cccc3Cl)cc2F)c1=O` reads > 100 µM.
Take `CC1CCC(=O)C(C(=O)CC2CC(=O)NC(=O)C2)C1` (stereo not given): the TGI is > 100 µM.
As to `COc1cccc(-n2c3nc(=O)n(C)c(=O)c-3nc3ccccc32)c1`, the TGI is 55.6 µM.
For the compound `CC(C)(C=O)CC(C#N)/C(=N\NC(N)=O)C(=O)Nc1ccccc1C(N)=O` (stereo not given), the TGI is > 100 µM.
On the same count and under the same terms, under `Cc1cc(C)c(C2[C@H]3C(=O)N(c4ccc(Cc5ccc(N6C(=O)[C@@H]7ON(c8ccccc8)C(c8c(C)cc(C)cc8C)[C@@H]7C6=O)cc5)cc4)C(=O)[C@H]3ON2c2ccccc2)c(C)c1` (stereo not given in full) stands > 100 µM.
For `COc1ccc2c(c1)C(C)Cc1c(ncnc1-n1c(C)nc3ccccc31)N2C` (stereo not given), the GI50 was 11.5 µM and the TGI came out at 36.1 µM.
The like results for `Cc1cc(C2CC(O)C(CO)O2)cc2c(=O)[nH]c(N)nc12` (stereo not given) were, in that order, > 100 µM and > 100 µM.
For the compound `COc1ccc2[nH]c3c4c(ccc3c2c1)C(=O)C=CC4=O`, the TGI was 49.9 µM.
On the same count and under the same terms, the result for `CC12CCCCC1(C)C2Sc1ccccc1` (stereo not given) reads > 100 µM.
As to `CCOC(=O)CNC(=O)c1ccccc1Nc1ccnc(C(F)(F)F)c1`, the GI50 was > 100 µM and the TGI was > 100 µM.
In the case of `C[C@@]12CCCc3coc(c31)C(=O)c1cc3c(cc12)C(=O)C=CC3=O`, the TGI was > 1 µM.
Still for that read-out and setting: under `C=CCNC(=O)N(CCC)CCCCC(NC(C)=O)C(=O)NCc1ccccc1` (stereo not given) stands > 100 µM; under `Nc1ccn(C2(CO)C=C(CO)C(O)C2O)c(=O)n1` (stereo not given), > 25.8 µM.
Still for that read-out and setting: the result for `C=C1C[C@]23CCC4C(C)(C)C(=O)CC[C@]4(C)C2C[C@H]1C(O)C3=O` (stereo not given in full) reads > 75 µM.
Turning to `COc1cccc(/C(COc2ccc3c(c2)oc(=O)c2cc(OC)ccc23)=N/O)c1`, the GI50 was 51.9 µM and the TGI is > 100 µM.
On to `COc1cc2c(c(OC)n1)[C@]1(O)[C@H](O)[C@H](CN(C)C)[C@@H](c3ccccc3)[C@]1(c1ccc(C#N)cc1)O2`, for which the GI50 was 0.0254 µM and < 0.0131 µM; the TGI is 4.34 µM and 1.28 µM.
Consider `C=CCSS/C=C/CS(=O)CC=C` (stereo not given), for which the TGI was > 100 µM.
Consider `Oc1cn(-c2ccc(Cl)cc2)nc1-c1n[nH]c(=S)n1C1CCCCC1`, for which the GI50 was 59.8 µM and the TGI was > 100 µM.

The next experiment has as its system HCT-15 colon. Kind of experiment: growth of human tumour cells (NCI), 48 h.
Take `CC1=NN(C(=O)CC(=O)N(C(=O)c2ccccc2Cl)c2ccc(C)cc2)C(=O)C1N=Nc1ccc([N+](=O)[O-])cc1` (stereo not given): the TGI is > 63.5 µM.
On to `CCn1c(CO)nn(-c2cc(O[C@@H](C)C(F)(F)F)c(C(=O)Nc3c(F)cccc3Cl)cc2F)c1=O`, for which the GI50 was < 0.01 µM and the TGI is > 100 µM.
As to `CC1CCC(=O)C(C(=O)CC2CC(=O)NC(=O)C2)C1` (stereo not given), the TGI was > 100 µM.
Compound `COc1cccc(-n2c3nc(=O)n(C)c(=O)c-3nc3ccccc32)c1` returned a TGI of 66.3 µM.
The same measure, in the same setting: the result for `CC(C)(C=O)CC(C#N)/C(=N\NC(N)=O)C(=O)Nc1ccccc1C(N)=O` (stereo not given) reads > 100 µM.
On the same count and under the same terms, the result for `Cc1cc(C)c(C2[C@H]3C(=O)N(c4ccc(Cc5ccc(N6C(=O)[C@@H]7ON(c8ccccc8)C(c8c(C)cc(C)cc8C)[C@@H]7C6=O)cc5)cc4)C(=O)[C@H]3ON2c2ccccc2)c(C)c1` (stereo not given in full) reads > 100 µM.
For `COc1ccc2c(c1)C(C)Cc1c(ncnc1-n1c(C)nc3ccccc31)N2C` (stereo not given), the GI50 was 1.83 µM and the TGI worked out at 16.9 µM.
Taken in the same sequence, the figures for `Cc1cc(C2CC(O)C(CO)O2)cc2c(=O)[nH]c(N)nc12` (stereo not given) were > 100 µM and > 100 µM.
Turning to `COc1ccc2[nH]c3c4c(ccc3c2c1)C(=O)C=CC4=O`, the TGI stood at 11.4 µM.
The same measure, in the same setting: the result for `CC12CCCCC1(C)C2Sc1ccccc1` (stereo not given) reads > 100 µM.
For `CCOC(=O)CNC(=O)c1ccccc1Nc1ccnc(C(F)(F)F)c1`, the GI50 was > 54.6 µM and the TGI was > 100 µM.
On to `C[C@@]12CCCc3coc(c31)C(=O)c1cc3c(cc12)C(=O)C=CC3=O`, for which the GI50 is > 1 µM; the TGI is > 1 µM and 36.7 µM.
Consider `C=CCNC(=O)N(CCC)CCCCC(NC(C)=O)C(=O)NCc1ccccc1` (stereo not given), for which the TGI is > 100 µM.
On the same count and under the same terms, under `Nc1ccn(C2(CO)C=C(CO)C(O)C2O)c(=O)n1` (stereo not given) stands > 25.8 µM; under `C=C1C[C@]23CCC4C(C)(C)C(=O)CC[C@]4(C)C2C[C@H]1C(O)C3=O` (stereo not given in full), > 75 µM.
With `COc1cccc(/C(COc2ccc3c(c2)oc(=O)c2cc(OC)ccc23)=N/O)c1`, the GI50 is 3.99 µM and the TGI was > 100 µM.
With `COc1cc2c(c(OC)n1)[C@]1(O)[C@H](O)[C@H](CN(C)C)[C@@H](c3ccccc3)[C@]1(c1ccc(C#N)cc1)O2`, the GI50 is 0.0243 µM and 0.0197 µM; the TGI was 3.65 µM and 3.44 µM.
For the compound `C=CCSS/C=C/CS(=O)CC=C` (stereo not given), the TGI is > 100 µM.
As to `Oc1cn(-c2ccc(Cl)cc2)nc1-c1n[nH]c(=S)n1C1CCCCC1`, the GI50 is 0.31 µM and the TGI was > 100 µM.

A further experiment relates to SF-539 CNS. In words: growth of human tumour cells (NCI), 48 h.
`CC1=NN(C(=O)CC(=O)N(C(=O)c2ccccc2Cl)c2ccc(C)cc2)C(=O)C1N=Nc1ccc([N+](=O)[O-])cc1` (stereo not given) yielded a TGI of 51.4 µM.
Turning to `CCn1c(CO)nn(-c2cc(O[C@@H](C)C(F)(F)F)c(C(=O)Nc3c(F)cccc3Cl)cc2F)c1=O`, the GI50 is < 0.01 µM and the TGI was > 100 µM.
As for `CC1CCC(=O)C(C(=O)CC2CC(=O)NC(=O)C2)C1` (stereo not given), the TGI is > 100 µM.
The same measure, in the same setting: under `COc1cccc(-n2c3nc(=O)n(C)c(=O)c-3nc3ccccc32)c1` stands 27.8 µM; under `CC(C)(C=O)CC(C#N)/C(=N\NC(N)=O)C(=O)Nc1ccccc1C(N)=O` (stereo not given), > 100 µM.
The same measure, in the same setting: under `Cc1cc(C)c(C2[C@H]3C(=O)N(c4ccc(Cc5ccc(N6C(=O)[C@@H]7ON(c8ccccc8)C(c8c(C)cc(C)cc8C)[C@@H]7C6=O)cc5)cc4)C(=O)[C@H]3ON2c2ccccc2)c(C)c1` (stereo not given in full) stands > 100 µM.
With `COc1ccc2c(c1)C(C)Cc1c(ncnc1-n1c(C)nc3ccccc31)N2C` (stereo not given), the GI50 was 2.34 µM and the TGI amounted to 6.92 µM.
In the case of `Cc1cc(C2CC(O)C(CO)O2)cc2c(=O)[nH]c(N)nc12` (stereo not given), the GI50 is > 100 µM and the TGI was > 100 µM.
Turning to `COc1ccc2[nH]c3c4c(ccc3c2c1)C(=O)C=CC4=O`, the TGI was found to be 32.2 µM.
On the same count and under the same terms, under `CC12CCCCC1(C)C2Sc1ccccc1` (stereo not given) stands > 100 µM.

Values taken from PubChem BioAssay (NCI).
